# According to patent publication US20070093460A1, “Methods of using selective 11beta-HSD inhibitors to treat gluocorticoid associated states” (priority 2005, published 2007):
# Entries after “also recorded” stand apart in the source; their conditions may differ. Read-outs that look alike come from different tables or passages of the source.
# Tests used:
# 11β-HSD2 [1] = molecular target: T1, 11β-HSD2 (Homo sapiens, UniProt P80365); settings: Monder et al., 1993; Pearson Murphy et al., 1981; cited from earlier work
# T1 sequence (P80365 1-405): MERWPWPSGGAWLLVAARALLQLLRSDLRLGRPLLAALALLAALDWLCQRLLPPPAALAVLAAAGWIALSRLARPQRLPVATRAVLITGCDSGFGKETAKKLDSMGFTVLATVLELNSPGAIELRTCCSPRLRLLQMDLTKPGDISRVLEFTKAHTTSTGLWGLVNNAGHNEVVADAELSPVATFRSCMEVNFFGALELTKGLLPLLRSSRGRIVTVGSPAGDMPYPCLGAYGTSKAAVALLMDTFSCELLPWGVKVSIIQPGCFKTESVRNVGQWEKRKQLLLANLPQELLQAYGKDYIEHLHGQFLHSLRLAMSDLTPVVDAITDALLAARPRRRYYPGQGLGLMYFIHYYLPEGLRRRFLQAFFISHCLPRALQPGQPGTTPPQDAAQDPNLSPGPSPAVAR
# 11β-HSD1 Dehydrogenase = 11β-HSD1 Dehydrogenase (Rattus norvegicus, UniProt P16232); assay: 11β-HSD1 dehydrogenase assay in rat Leydig cell homogenates; type: biochemical; parameters: Freshly prepared rat Leydig cell homogenates were chosen since they provide a rich and reliable source of both 11β-HSD1 dehydrogenase and reductase; from tissue; host or cells: rat testicular Leydig cells, homogenate;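 note: tritiated corticosterone conversion by 11β-HSD1 dehydrogenase in Leydig homogenates with 3 mM NADP at pH 8.4, 37 °C for 10 min, products resolved by HPLC, inhibition relative to uninhibited enzyme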
# Description: (§2) Each enzyme reaction (described below) was stopped by adding 750 μL MeOH. After centrifugation, an aliquot of supernatant was analyzed by HPLC using a DuPont Zorbax C8 column.
# (§3) 11β-HSD1 dehydrogenase was assayed by incubating homogenates (13,000 cells equivalent) with 600 nM [^3H]-B (0.5 μCi) in the presence of 3 mM NADP, 50 mM Tris-HCl; pH 8.4 at 37° C. for 10 minutes in a total volume of 250 μL. 11β-HSD1 reductase was assayed by incubating homogenates (52,000 cells equivalent) with 600 nM [^3H]-11-dehydro-corticosterone in presence of 3 mM NADPH, 50 mM Tris-HCl; pH 7.4 at 37° C. for 20 minutes in a total volume of 250 μL.
# (§4) Each concentration was tested in triplicate and the dose response curve, showing percentage inhibition versus log concentration of steroid was plotted. The data fitted a log-linear straight line.
# 11β-HSD1 = 11β-HSD1 (Homo sapiens, UniProt P28845); settings: Monder et al., 1993; Pearson Murphy et al., 1981; cited from earlier work
# 11β-HSD2 [2] = molecular target: T2, 11β-HSD2 (Ovis aries, UniProt P50168); assay: 11β-HSD2 enzyme activity in sheep kidney microsomes; type: biochemical
# T2 construct: incubating sheep kidney microsomal fraction (6.5 μg protein) with 50 nM corticosterone; from tissue; host or cells: sheep kidney microsomal fraction
# T2 sequence (P50168 1-427): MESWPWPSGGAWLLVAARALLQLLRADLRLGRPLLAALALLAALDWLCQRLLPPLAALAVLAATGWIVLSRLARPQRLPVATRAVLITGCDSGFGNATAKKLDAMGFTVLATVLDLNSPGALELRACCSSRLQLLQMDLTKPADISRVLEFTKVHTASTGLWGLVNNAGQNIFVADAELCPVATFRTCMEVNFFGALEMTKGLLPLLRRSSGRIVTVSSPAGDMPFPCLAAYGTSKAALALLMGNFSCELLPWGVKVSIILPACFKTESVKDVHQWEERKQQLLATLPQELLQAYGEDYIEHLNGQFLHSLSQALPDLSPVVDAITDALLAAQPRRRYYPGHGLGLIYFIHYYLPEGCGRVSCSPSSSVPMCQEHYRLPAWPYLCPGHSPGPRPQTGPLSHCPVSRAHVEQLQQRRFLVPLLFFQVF
# From the text: The enzymatic reaction was termninated by addition of methanol and synthesis of 11-dehydro-corticosterone was quantitated by HPLC as described above.
# 11β-HSD1 Reductase = 11β-HSD1 Reductase (Rattus norvegicus, UniProt P16232); assay: 11β-HSD1 reductase assay in rat Leydig cell homogenates;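 note: rat Leydig cell homogenate incubated 20 min at 37 °C, pH 7.4, with tritiated 11-dehydro-corticosterone and 3 mM NADPH, product measured by HPLC, inhibition from triplicate dose–response curves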
# Description: as §2, §3, §4
# [3] = test system: cultured rat vascular endothelial and smooth muscle cells; assay: RT-PCR analysis of 11β-HSD isoform expression in cultured cells; type: cell-based; settings: similar protocol
# From the text: Since 11β-HSD2 appears to exist only in endothelial cells, this observation supports a role for the action of glucocorticoids in affecting endothelial cell function. […] Further experiments to determine whether antisense oligomers down-regulate mRNA and protein expression of their respective 11β-HSD isoform under conditions in which they enhance contractile responses in aortic rings will be done.
# rat aortic rings [4] = assay: Contractile response of rat aortic rings to phenylephrine; type: cell-based; settings: 24 h; for contractile response to phenylephrine of rings incubated with corticosterone and antisense: corticosterone 10 nmol/L + antisense 3 μmol/L, compared with nonsense oligomers; for effect on the ability of 11-dehydro-corticosterone to amplify the contractile response to phenylephrine: 11-dehydro-corticosterone 100 nmol/L, antisense 3 μmol/L vs nonsense
# Description: Male Sprague-Dawley (150-200 g) rats were anesthetized with pentobarbital (50 mg/kg IP), and a median sternotomy was performed followed by the rapid removal of the thoracic aorta. The adventitia was removed, but the endothelium was left intact. The aorta was cut into 2-3 mm rings and individual rings were placed into a single well of a twenty four well culture plate and incubated at 37° C. under 95% 02-5% CO2. Each well contained 1 mL of DMEM/F12 containing 1% fetal bovine serum, streptomycin (100 μg/ml), penicillin (100 units/ml) and amphotericin (0.25 μg/ml). Aortic rings were incubated for 24 hours prior to contractility measurements with the following combinations of steroids, and antisense/nonsense oligonucleotides (3 μmol/L):
# Antisense phosphorothioate oligonucleotides, targeted to block either 11β-HSD2 or 11β-HSD1 gene expression, were obtained from Research Genetics, Huntsville Ala. Antisense oligomers complementary to 20 bp sequences spanning the ribosome binding/translation start site were used. Oligomer sequences were: 5′-CATAACTGCCGTCCAACAGC-3′ (SEQ ID NO. 1) for 11β-HSD1 Antisense and 5′-AGGCCAGCGCTCCATGACTT-3′ (SEQ ID NO 2) for 11β-HSD2 antisense. In control experiments the corresponding sense sequence was used as the nonsense oligomer. Antisense and nonsense oligomers were added directly to each well at 20 μg/10:1 sterile H2O per well for a final concentration of 3 μmol/L.
# For contraction measurements, aortic rings were suspended by tungsten wires with 1 g of tension and placed in a vessel bath containing serum free DMEM/F12 media at 37° C. aerated with 95% O2-5% CO2, at pH 7.4. Vessels were equilibrated for 20 minutes and then tested with phenylephrine (1 nmol/L-10 μmol/L). Although phenylephrine is structurally not a catecholamine, it is considered to be a functional catecholamine as it activates both a and P adrenoceptors. Due to its favorable stability characteristics, it is widely used as a catecholamine substitute in experiments of this nature. The intensity of contraction was assessed by use of a Narishige micromanipulator and model FT03 force transducer (Grass Instrument Co. West Warwick, R.I.). Measurements were recorded on computer using the Labview 4.1 Virtual Instrument System (National Instruments, Austin, Tex.).
# rat aortic rings [5] = assay: Conversion of 3H-corticosterone to 11-dehydrocorticosterone by aortic rings; type: cell-based; settings: 3H-corticosterone 10 nM, antisense 3 μM, 24 hrs, compared with nonsense oligomers
# Description: (§1) The effects of 11β-HSD1 and 11β-HSD2 antisense on the inter-conversion of ^3H-corticosterone and ^3H-11-dehydro-corticosterone by aortic rings was also determined. Rings (2-3 mm) obtained in a similar manner as those in the contraction studies, were incubated in 1 ml DMEM/F12 media containing 1% FBS at 37° C. under 95% O2-5% CO2 in 24-well culture plates. Rings were incubated for 24 hours with:
# (i) ^3H-corticosterone (10 nmol/L)±11β-HSD2 or 11β-HSD1 antisense (3 μmol/L); control groups received nonsense oligomers. The amount of ^3H-11-dehydro-corticqsterone in the incubation medium after 24 hrs was then measured. The effects of 11β-HSD1 antisense/nonsense were measured in quadruplicate (n=6 aortic rings per well) and the effects of 11β-HSD2 antisense/nonsense in duplicate (n=8 aortic rings per well),
# Incubation media was collected, ran through a Sep-Pak and eluted with 3 mls of methanol, the eluate was then dried under nitrogen and reconstituted in 500:1 methanol. The aortic rings were dried and weighed. The steroids present in the eluate were separated by high-pressure liquid chromatography with a Dupont Zorbax C8 column eluted at 44° C. at a flow rate of 1 mL/min using 55% methanol for 10 minutes. Steroids were observed by monitoring radioactivity on-line with a Packard Radiomatic Flo-One/Beta Series A-500 counter connected to a Dell Optiflex 425 S/L computer. […]
# [6] = molecular target: T3, 11β-HSD1-reductase activity (Rattus norvegicus, UniProt P16232); assay: Metabolism of 3H-11-dehydrocorticosterone back to corticosterone by aortic rings; type: cell-based; settings: 24 hours, compared with nonsense oligomers
# T3 construct: from tissue; host or cells: rat aortic rings (intact tissue, 24 h incubation)
# Description: as §1
# (ii) ^3H-11β-dehydro-corticosterone (10 nmol/L)±11β-HSD1 antisense (3 μmol/L); this experiment was performed in duplicate (n=10 aortic rings per well). Control groups were incubated with the appropriate nonsense oligomer. ^3H-corticosterone in the incubation medium after 24 hrs was then measured. In this experiment, aortic rings were also analyzed for ^3H-corticosterone content. Rings from duplicate incubations (total n=20) were blotted dry, pooled and homogenized in 50% methanol using a Polytron. The homogenates were then centrifuged, extracted as below using Sep-Paks and injected onto a HPLC system for analysis.
# Incubation media was collected, ran through a Sep-Pak and eluted with 3 mls of methanol, the eluate was then dried under nitrogen and reconstituted in 500:1 methanol. The aortic rings were dried and weighed. […] Steroids were observed by monitoring radioactivity on-line with a Packard Radiomatic Flo-One/Beta Series A-500 counter connected to a Dell Optiflex 425 S/L computer. […]
# normotensive SD rats = settings: infused into normotensive SD rats; cited from earlier work
# [7] = listed as 11β-HSD1 antisense oligomers
# Sequence of 11β-HSD1 Dehydrogenase (P16232 whole entry): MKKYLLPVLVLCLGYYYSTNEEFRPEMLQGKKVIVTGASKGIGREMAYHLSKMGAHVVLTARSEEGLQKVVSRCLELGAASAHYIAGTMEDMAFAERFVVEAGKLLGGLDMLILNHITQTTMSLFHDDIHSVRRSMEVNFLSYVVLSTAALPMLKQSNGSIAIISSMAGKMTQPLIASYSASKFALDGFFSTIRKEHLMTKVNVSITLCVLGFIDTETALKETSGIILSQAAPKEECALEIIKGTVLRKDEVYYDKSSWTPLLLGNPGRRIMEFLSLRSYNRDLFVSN
# T3 sequence (P16232 whole entry): as above
# Sequence of 11β-HSD1 Reductase (P16232 whole entry, canonical isoform): as the sequence (P16232 whole entry) above
# Sequence of 11β-HSD1 (P28845 whole entry, species assumed): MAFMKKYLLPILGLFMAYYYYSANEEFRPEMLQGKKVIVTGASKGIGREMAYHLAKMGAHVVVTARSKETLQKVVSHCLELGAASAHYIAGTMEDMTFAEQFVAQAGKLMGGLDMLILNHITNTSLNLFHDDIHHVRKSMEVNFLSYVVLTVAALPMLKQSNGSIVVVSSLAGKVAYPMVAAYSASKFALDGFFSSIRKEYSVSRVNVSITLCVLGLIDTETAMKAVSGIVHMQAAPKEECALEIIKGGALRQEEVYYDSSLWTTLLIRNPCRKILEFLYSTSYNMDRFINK
compound,measurement,setting,value
"C[C@]12CCC(=O)C=C1CC[C@@H]1[C@@H]2[C@@H](O)C[C@]2(C)C(=O)CC[C@@H]12 [11β-OH-Androstenedione, 4-Androsten-11β-ol-3,17-dione]",inhibition of 11β-HSD2 isoform,11β-HSD2 [1],poor inhibitor
same,IC50,11β-HSD1 Dehydrogenase,> 100 µM
same,Leydig Cell 11β-HSDl Dehydrogenase [S] = 600 nM,"11β-HSD1 Dehydrogenase; rat Leydig cell homogenates, 600 nM corticosterone, progesterone and androgen derivatives",inactive
same,inhibition of 11β-HSD1 isoform,11β-HSD1,poor inhibitor
same,IC50,11β-HSD2 [2],7.8 µM
same,Sheep kidney 11β-HSD2 [S] = 50 nM,"11β-HSD2 [2]; sheep kidney microsomes, corticosterone substrate, progesterone and androgen derivatives",weak inhibitor
same,IC50,11β-HSD1 Reductase,> 100 µM
"5′-AGGCCAGCGCTCCATGACTT-3′ (antisense AGGCCAGCGCTCCATGACTT; all phosphorothioate, sugars by position and methylation of C not given here) [11β-HSD2 antisense]",expression of the respective 11β-HSD enzyme isoform,[3],down-regulate the expression
same,contractile response to phenylephrine of rings incubated with corticosterone and antisense,rat aortic rings [4],statistically significant increase; also recorded: significantly (P<0.05) increased
same,reduction in the conversion of corticosterone to 11-dehydrocorticosterone,rat aortic rings [5],24%
"5′-CATAACTGCCGTCCAACAGC-3′ (antisense CATAACTGCCGTCCAACAGC; all phosphorothioate, sugars by position and methylation of C not given here) [11β-HSD1 antisense]",expression of the respective 11β-HSD enzyme isoform,[3],down-regulate the expression
same,effect on the ability of 11-dehydro-corticosterone to amplify the contractile response to phenylephrine,rat aortic rings [4],significantly attenuated
same,effect on the ability of 11-dehydro-corticosterone to amplify the contractile response to phenylephrine,rat aortic rings [4]; listed as 11β-HSD1 antisense oligomer,attenuates
same,effect on the ability of 11-dehydro-corticosterone to amplify the contractile response to phenylephrine,rat aortic rings [4]; [7],attenuated
same,contractile response to phenylephrine of rings incubated with corticosterone and antisense,rat aortic rings [4],significantly increased
same,contractile response to phenylephrine of rings incubated with corticosterone and antisense,rat aortic rings [4]; [7],enhanced the ability of corticosterone to amplify the contractile response
same,production of 3H-corticosterone from 3H-11-dehydrocorticosterone,[6],significantly reduce; also recorded: markedly reduced; also recorded: marked decrease
same,reduction in the conversion of corticosterone to 11-dehydrocorticosterone,rat aortic rings [5],21%
"CC(=O)[C@H]1CC[C@H]2[C@@H]3CC[C@H]4C[C@H](O)CC[C@]4(C)[C@H]3[C@@H](O)C[C@]12C [11β-OH-allopregnanolone, 5α-Pregnan-3α,11β-diol-2O-one]",IC50,"11β-HSD1 Dehydrogenase; rat Leydig cell homogenates, 600 nM corticosterone, progesterone and androgen derivatives, read-out: Leydig Cell 11β-HSDl Dehydrogenase [S] = 600 nM",3 µM
same,inhibitors of 11β-HSD1 dehydrogenase (summary in words),11β-HSD1 Dehydrogenase; summary of the screening,potent inhibitors; also recorded: high potency
same,IC50,"11β-HSD2 [2]; sheep kidney microsomes, corticosterone substrate, progesterone and androgen derivatives, read-out: Sheep kidney 11β-HSD2 [S] = 50 nM",0.12 µM
same,inhibitors of 11β-HSD2 (summary in words),11β-HSD2 [2]; summary of the screening,potent inhibitors; also recorded: high potency
same,IC50,"11β-HSD1 Reductase; read-out: Leydig Cell 11β-HSD1 Reductase [S] = 600 nM, rat Leydig cell homogenates, 600 nM 11-dehydro-corticosterone, progesterone and androgen derivatives",> 100 µM
same,blood pressure,normotensive SD rats,increased BP
